Experimental data: patent US20260250318A1, “COMPOSITIONS AND METHODS FOR CROSSING THE BLOOD BRAIN BARRIER” (VOYAGER THERAPEUTICS, INC., priority 2022, published 2026)

Experiments:
Settings in all cases: synthetic library passage 3, intravenous, relative to wild-type AAV9
brain [1] = assay: NGS fold enrichment of synthetic library (passage 3) in BALB/c mice, first cross-species screen; format: in vivo
Summary of the method: (§1)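 Fold enrichment versus wild-type AAV9 was derived by NGS of RT-PCR-amplified RNA from nervous tissue, collected e.g. 28 days after IV dosing […]. The library (passage 3) was given to two NHPs aged 2-4 years and to 6-8-week BALB/c and C57Bl/6 mice (n=3 each).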

brain [2] = assay: NGS fold enrichment of synthetic library (passage 3) in C57Bl/6 mice, first cross-species screen; format: in vivo
Summary of the method: as §1

[3] = tested on: brain, spinal cord, and DRG of the NHPs; assay: NGS fold enrichment of synthetic library (passage 3) in NHPs, first cross-species screen; format: in vivo, cynomolgus macaques (Macaca fascicularis)
Summary of the method: as §1

[4] = RNA from brain of BALB/c mice, NGS
[5] = RNA from brain of C57Bl/6 mice, NGS
[6] = RNA from spinal cord of NHPs, NGS

Row | Sequence | Fold enrichment over AAV9 in the brain of Mice (BALB/c) (brain [1]; RNA NGS, brain of BALB/c mice) [fold] | Fold enrichment over AAV9 in the brain of Mice (C57Bl/6) (brain [2]; RNA NGS, brain of C57Bl/6 mice) [fold] | Fold enrichment over AAV9 in the brain of NHPs ([3]; RNA NGS, brain of NHPs) [fold] | Fold enrichment over AAV9 in the spinal cord of NHPs ([3]; RNA NGS, spinal cord of NHPs) [fold] | Fold enrichment over AAV9 in the brain of Mice (BALB/c) (brain [1]; [4]) [fold] | Fold enrichment over AAV9 in the brain of Mice (C57Bl/6) (brain [2]; [5]) [fold] | Fold enrichment over AAV9 in the brain of NHPs ([3]; RNA from brain of NHPs, NGS) [fold] | Fold enrichment over AAV9 in the spinal cord of NHPs [3, 6] [fold]
1 | GSGQNQANWVKVQT | 0.532 | 0.683 | 1.059 | 0.126 |  |  |  | 
2 | GSGQNQALVSMGQT |  |  |  |  | 0.560 | 0.987 | 1.255 | 1.876
3 | GSGSSSMSFQNQQT |  |  |  |  | 0.095 | 0.466 | 1.279 | 0.540
4 | GSGQNQQSHLRTNT |  |  |  |  | 0.718 | 1.022 | 1.251 | 4.583
5 | GEKAVTSSGQNQQT |  |  |  |  | 0.327 | 0.558 | 1.402 | 0.998
6 | GSGQNQQTRQEGST |  |  |  |  | 0.718 | 0.645 | 1.339 | 0.000
7 | GSGQVHQAEVNQQT | 0.287 | 0.436 | 1.825 | 0.152 |  |  |  | 
8 | GRGGIPQSGQNQQT | 1.181 | 1.639 | 2.352 | 8.683 |  |  |  | 
9 | GSGRNPQTQPLQQT | 0.573 | 0.733 | 1.519 | 0.040 |  |  |  | 
10 | GSLMDVHRGQNQQT |  |  |  |  | 0.238 | 1.009 | 1.150 | 0.387
11 | GSGQKMWKLDNQQT |  |  |  |  | 1.418 | 0.990 | 1.341 | 0.000
12 | GSGRHLASVQNQQT |  |  |  |  | 0.606 | 0.654 | 1.187 | 1.024
13 | GSPGVSPSGQNQQT |  |  |  |  | 1.160 | 0.853 | 1.178 | 3.006
14 | GSGQVGRLLQNQQT | 0.748 | 0.773 | 1.899 | 1.762 |  |  |  | 
15 | GSGQNQYSQSSMQT | 0.309 | 0.375 | 1.494 | 4.278 |  |  |  | 
16 | GSGQNQQLVSRVQT |  |  |  |  | 0.466 | 0.656 | 1.381 | 1.195

Row | Sequence | Fold enrichment over AAV9 in the brain of Mice (BALB/c) (brain [1]; RNA NGS, brain of BALB/c mice) [fold] | Fold enrichment over AAV9 in the brain of Mice (C57Bl/6) (brain [2]; RNA NGS, brain of C57Bl/6 mice) [fold] | Fold enrichment over AAV9 in the brain of NHPs ([3]; RNA NGS, brain of NHPs) [fold] | Fold enrichment over AAV9 in the spinal cord of NHPs ([3]; RNA NGS, spinal cord of NHPs) [fold] | Fold enrichment over AAV9 in the brain of Mice (BALB/c) (brain [1]; [4]) [fold] | Fold enrichment over AAV9 in the brain of Mice (C57Bl/6) (brain [2]; [5]) [fold] | Fold enrichment over AAV9 in the brain of NHPs ([3]; RNA from brain of NHPs, NGS) [fold] | Fold enrichment over AAV9 in the spinal cord of NHPs [3, 6] [fold]
17 | GGTRVVDSGQNQQT | 0.370 | 0.676 | 1.676 | 9.735 |  |  |  | 
18 | GSGQNQQTSLSNTA | 1.182 | 1.567 | 1.959 | 1.186 |  |  |  | 
19 | GASHMSISGQNQQT |  |  |  |  | 0.374 | 0.404 | 1.284 | 0.462
20 | GSGQNQQASGRQQT | 0.991 | 0.943 | 1.458 | 3.179 |  |  |  | 
21 | GSGQNQQTSVSQNV |  |  |  |  | 0.715 | 0.788 | 1.281 | 0.750
22 | GSGQHSNQHVNQQT |  |  |  |  | 0.558 | 0.955 | 1.192 | 1.453
23 | GSGQNQQTRLTDLT | 0.776 | 0.910 | 2.046 | 8.470 |  |  |  | 
24 | GSGQNQQTSPHNHT | 0.845 | 1.524 | 2.761 | 3.132 |  |  |  | 
25 | GPAQHGTSGQNQQT |  |  |  |  | 0.615 | 1.030 | 1.407 | 0.866
26 | GDMTRSSSGQNQQT | 1.038 | 1.145 | 1.075 | 0.802 |  |  |  | 
27 | GSFSMHTHGQNQQT | 0.693 | 1.027 | 2.535 | 0.118 |  |  |  | 
28 | GSVLHSHAAQNQQT | 0.423 | 0.675 | 4.150 | 6.448 |  |  |  | 
29 | GSNLSFQSGQNQQT | 0.719 | 1.087 | 2.122 | 5.853 |  |  |  | 
30 | GSGVQHSLPQNQQT | 0.387 | 0.440 | 1.639 | 0.764 |  |  |  | 
31 | GSGQNQQTMDHNRT | 0.440 | 0.642 | 2.130 | 4.944 |  |  |  | 
32 | GRGQIYSTGGNQQT | 0.743 | 1.329 | 2.210 | 11.629 |  |  |  | 
